Data taken from the NIST ThermoML archive (doi:10.1016/j.tca.2011.02.002).

Legend:
[1] = xn = mol fraction of the nth substance listed; conditions: 101 kPa, Liquid; for mass density: Vibrating tube method
[2] = excess molar enthalpy (molar enthalpy of mixing); xn = mol fraction of the nth substance listed; conditions: 308.15 K, 101 kPa, Liquid, 2-drop calorimeter (CSC 4600_

Cc1ccncc1 [4-methylpyridine] + C1CCOCC1
[1]
Conditions	mass density, 298.15 K [kg/m3]	mass density, 303.15 K [kg/m3]	mass density, 308.15 K [kg/m3]	speed of sound, 298.15 K [m/s]	speed of sound, 303.15 K [m/s]	speed of sound, 308.15 K [m/s]
x2 = 0	950.179	945.413	940.821	1431.5	1410.7	1389.9
x2 = 0.0521	946.678	941.884	936.955	1422.7	1402.2	1380.6
x2 = 0.0832	944.577	939.773	935.004	1417.5	1397.2	1376.2
x2 = 0.1426	940.548	935.733	931.541	1407.8	1387.6	1368.4
x2 = 0.1882	937.434	932.615	928.307	1400.5	1380.3	1360.8
x2 = 0.2536	932.939	928.121	923.922	1390.1	1369.7	1350.5
x2 = 0.2902	930.406	925.591	921.331	1384.3	1363.8	1344.4
x2 = 0.3415	926.841	922.019	917.744	1376.1	1355.3	1336
x2 = 0.3782	924.275	919.451	914.432	1370.3	1349.3	1328
x2 = 0.4323	920.471	915.637	911.254	1361.6	1340.5	1320.8
x2 = 0.4913	916.295	911.443	907.207	1352.1	1330.7	1311.3
x2 = 0.5437	912.559	907.692	903.227	1343.6	1322	1302.1
x2 = 0.5991	908.587	903.687	899.247	1334.5	1312.8	1292.8
x2 = 0.6427	905.441	900.515	895.885	1327.3	1305.5	1285.2
x2 = 0.7015	901.173	896.211	891.453	1317.7	1295.7	1275
x2 = 0.7822	895.277	890.253	887.03	1304.4	1282.3	1264.5
x2 = 0.8263	892.032	886.976	882.795	1297.2	1275	1255.2
x2 = 0.8846	887.726	882.631	877.665	1287.9	1265.5	1243.9
x2 = 0.9435	883.352	878.225	873.901	1278.6	1255.9	1235.3

[2]
Conditions	excess molar enthalpy [kcal/mol]
x2 = 0.0442	0.00296
x2 = 0.1216	0.0102
x2 = 0.1982	0.0182
x2 = 0.2416	0.0233
x2 = 0.2882	0.0282
x2 = 0.3401	0.0323
x2 = 0.3876	0.0366
x2 = 0.4371	0.0395
x2 = 0.4834	0.0416
x2 = 0.5256	0.0419
x2 = 0.5934	0.0413
x2 = 0.6433	0.039
x2 = 0.6925	0.0359
x2 = 0.7367	0.0316
x2 = 0.7952	0.0256
x2 = 0.8262	0.0227
x2 = 0.8842	0.015
x2 = 0.9406	0.00777

c1ccncc1 [pyridine] + C1CCOCC1
[1]
Conditions	mass density, 298.15 K [kg/m3]	mass density, 303.15 K [kg/m3]	mass density, 308.15 K [kg/m3]	speed of sound, 298.15 K [m/s]	speed of sound, 303.15 K [m/s]	speed of sound, 308.15 K [m/s]
x2 = 0	978.249	973.224	968.166	1417.6	1397.4	1377.1
x2 = 0.0427	973.663	968.634	963.658	1411.9	1391.4	1370.9
x2 = 0.1021	967.309	962.276	957.232	1403.6	1382.9	1362.3
x2 = 0.1883	958.157	953.12	948.063	1391.4	1370.2	1349.4
x2 = 0.2415	952.565	947.532	942.634	1383.7	1362.2	1341.1
x2 = 0.2853	948.002	942.969	938.037	1377.4	1355.6	1334.3
x2 = 0.3438	941.972	936.936	931.957	1368.8	1346.7	1325.4
x2 = 0.3742	938.871	933.829	928.814	1364.2	1342.1	1320.6
x2 = 0.4263	933.597	928.553	923.491	1356.5	1334	1312.5
x2 = 0.4642	929.793	924.748	919.649	1350.7	1328.2	1306.7
x2 = 0.5364	922.65	917.601	912.425	1339.8	1317.1	1295.4
x2 = 0.5721	919.167	914.108	908.895	1334.4	1311.6	1289.8
x2 = 0.6283	913.73	908.661	903.408	1325.8	1302.9	1281.1
x2 = 0.6872	908.097	903.027	897.739	1316.9	1293.9	1271.9
x2 = 0.7336	903.711	898.628	893.335	1309.8	1286.9	1264.7
x2 = 0.7823	899.149	894.056	888.752	1302.5	1279.5	1257.3
x2 = 0.8351	894.248	889.143	883.845	1294.4	1271.5	1249.2
x2 = 0.8752	890.543	885.431	880.16	1288.5	1265.4	1243.1
x2 = 0.9354	885.027	879.898	874.668	1279.5	1256.4	1234.1

[2]
Conditions	excess molar enthalpy [kcal/mol]
x2 = 0.0552	0.00315
x2 = 0.1006	0.00626
x2 = 0.1525	0.0101
x2 = 0.2014	0.0141
x2 = 0.2915	0.0215
x2 = 0.3462	0.0254
x2 = 0.3871	0.029
x2 = 0.4217	0.0314
x2 = 0.4853	0.0347
x2 = 0.5363	0.0376
x2 = 0.5802	0.0387
x2 = 0.6461	0.039
x2 = 0.6864	0.0391
x2 = 0.7344	0.0374
x2 = 0.7856	0.0341
x2 = 0.8315	0.0298
x2 = 0.8911	0.0219
x2 = 0.9347	0.0139
